Values quoted from earlier work as cited in PMC8583936, “Machine Learning Assisted Approach for Finding Novel High Activity Agonists of Human Ectopic Olfactory Receptors” (International Journal of Molecular Sciences, 2021).

Biological target: T1, OR1A1 (Homo sapiens, UniProt Q9P1Q5)
T1 sequence (Q9P1Q5 1-309): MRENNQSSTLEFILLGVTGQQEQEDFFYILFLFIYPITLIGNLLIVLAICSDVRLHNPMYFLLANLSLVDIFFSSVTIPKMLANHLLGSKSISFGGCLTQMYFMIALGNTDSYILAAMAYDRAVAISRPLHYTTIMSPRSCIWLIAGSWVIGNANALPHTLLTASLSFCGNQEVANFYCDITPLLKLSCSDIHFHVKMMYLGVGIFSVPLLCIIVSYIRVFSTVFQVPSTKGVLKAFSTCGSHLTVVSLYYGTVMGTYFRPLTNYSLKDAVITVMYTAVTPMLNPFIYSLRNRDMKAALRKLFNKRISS
Settings: Table S1; ref Supplement references [1]-[9] as printed after each odorant name; cited from earlier work

Row | SMILES | Class (agonist / non-agonist / conflicting info.) for OR1A1
1 | CC1(C)CC(=O)CC(=O)C1 [Dimedone] | Non-agonist
2 | CSC [Dimethyl sulfide] | Non-agonist
3 | CSSSC [Dimethyl trisulfide] | Non-agonist
4 | CCCSSSCCC [Dipropyl trisulfide] | Non-agonist
5 | CCCCC/C=C/C=C/C=O [E,E-2,4-decadienal] | Conflicting info.
6 | CCCC/C=C/C=C/C=O [E,E-2,4-nonadienal] | Non-agonist
7 | CC/C=C\CC/C=C/C=O [E,Z-2,6-nonadienal] | Non-agonist
8 | CCO [Ethanol] | Non-agonist
9 | CCOC(=O)C(C)CC (stereo not drawn) [Ethyl 2-methylbutyrate] | Non-agonist
10 | CCCC(O)CC(=O)OCC (stereo not drawn) [Ethyl 3-hydroxyhexanoate] | Non-agonist
11 | CCOC(=O)CCC(C)C [Ethyl 4-methylvalerate] | Non-agonist
12 | CCOC(C)=O [Ethyl acetate] | Non-agonist
13 | CCCC(=O)OCC [Ethyl butyrate] | Non-agonist
14 | CCOC(=O)/C=C/c1ccccc1 [Ethyl cinnamate] | Non-agonist
15 | CCOC(=O)C1CCCCC1 [Ethyl cyclohexanecarboxylate] | Agonist
16 | CCCCCC(=O)OCC [Ethyl hexanoate] | Agonist
17 | CCOC(=O)C(C)C [Ethyl isobutyrate] | Non-agonist
18 | CCOC(=O)CC(C)C [Ethyl isovalerate] | Non-agonist
19 | CCOC(=O)C(C)=O [Ethyl pyruvate] | Non-agonist
20 | CCOc1cc(C=O)ccc1O [Ethyl vanillin] | Conflicting info.
21 | C=CC(=O)CC [Ethyl vinyl ketone] | Non-agonist

Row | SMILES | Class (agonist / non-agonist / conflicting info.) for OR1A1
22 | O=C1CCCCCCCCCCCC(=O)OCCO1 [Ethylene brassylate] | Conflicting info.
23 | C=CCc1ccc(OC)c(OC)c1 [Eugenol methyl ether] | Conflicting info.
24 | C=CCc1ccc(OC(C)=O)c(OC)c1 [Eugenyl acetate] | Non-agonist
25 | C/C=C/C(=O)C(C)CC (stereo not drawn) [Filbertone] | Non-agonist
26 | CC1=C(O)C(=O)C(C)O1 (stereo not drawn) [Furaneol] | Non-agonist
27 | SCc1ccco1 [Furfurylthiol] | Non-agonist
28 | CC(C)=CCC/C(C)=C/CO [Geraniol] | Conflicting info.
29 | CC(=O)OC/C=C(\C)CCC=C(C)C [Geranyl acetate] | Conflicting info.
30 | COc1ccccc1O [Guaiacol] | Non-agonist
31 | CCCCCCC=O [Heptanal] | Conflicting info.
32 | CCCCCCC(=O)O [Heptanoic acid] | Non-agonist
33 | CCCCCCCO [Heptanol] | Conflicting info.
34 | CCCCCC=O [Hexanal] | Non-agonist
35 | CCCCCCO [Hexanol] | Non-agonist
36 | CCCCCCOC(C)=O [Hexyl acetate] | Non-agonist
37 | CCC1OC(C)=C(O)C1=O (stereo not drawn) [Homofuraneol] | Non-agonist
38 | CC(CC=O)CCCC(C)(C)O (stereo not drawn) [Hydroxy-citronellal] | Conflicting info.
39 | CC(=O)OCCC(C)C [Isoamyl acetate] | Non-agonist
40 | CC(C)CO [Isobutyl alcohol] | Non-agonist
41 | CC(C)CN [Isobutyl amine] | Conflicting info.
42 | CC(C)C=O [Isobutylraldehyde] | Non-agonist

Same assay, conditions: cited from earlier work

Row | SMILES | Class (agonist / non-agonist / conflicting info.) for OR1A1
43 | CSSC [Dimethyl disulfide] | Conflicting info.
44 | C=CCc1ccc(OC)cc1 [Estragole] | Agonist
45 | CCOC(=O)c1ccccc1 [Ethyl benzoate] | Non-agonist
46 | CCCCCCCCCC(=O)OCC [Ethyl decanoate] | Non-agonist
47 | CCCCCCCC(=O)OCC [Ethyl octanoate] | Non-agonist
48 | CCCCC(=O)OCC [Ethyl pentanoate] | Non-agonist
49 | CCOC(=O)Cc1ccccc1 [Ethylphenyl acetate] | Agonist
50 | C=CCc1ccc(O)c(OC)c1 [Eugenol] | Conflicting info.
51 | CCCCCCCC1CCC(=O)O1 (stereo not drawn) [Gamma-undecalactone] | Non-agonist
52 | CC(C=O)Cc1ccc2c(c1)OCO2 (stereo not drawn) [Helional] | Agonist
53 | CCCCCCCOC(=O)C(C)C [Heptyl isobutyrate] | Non-agonist
54 | CCCCCC(=O)O [Hexanoic acid] | Non-agonist

Biological target: T2, OR2W1 (Homo sapiens, UniProt Q9Y3N9)
T2 sequence (Q9Y3N9 1-320): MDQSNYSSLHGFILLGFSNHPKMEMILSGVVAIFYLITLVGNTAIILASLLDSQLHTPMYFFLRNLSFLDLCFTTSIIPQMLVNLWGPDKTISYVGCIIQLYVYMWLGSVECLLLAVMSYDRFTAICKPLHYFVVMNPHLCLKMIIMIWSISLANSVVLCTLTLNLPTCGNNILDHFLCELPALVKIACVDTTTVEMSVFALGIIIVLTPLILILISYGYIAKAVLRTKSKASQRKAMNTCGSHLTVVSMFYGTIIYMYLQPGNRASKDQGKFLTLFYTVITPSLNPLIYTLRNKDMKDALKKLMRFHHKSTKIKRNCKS
Settings: Table S2; ref Supplement references [2]-[12] as printed after each odorant name; cited from earlier work

Row | SMILES | Class (agonist / non-agonist / antagonist / conflicting info.) for OR2W1
55 | CC1(C)CC(=O)CC(=O)C1 [Dimedone] | Non-agonist
56 | CSC [Dimethyl sulfide] | Non-agonist
57 | CSSSC [Dimethyl trisulfide] | Non-agonist
58 | CCCSSSCCC [Dipropyl trisulfide] | Non-agonist
59 | CCCCC/C=C/C=C/C=O [E,E-2,4-decadienal] | Non-agonist
60 | CCCC/C=C/C=C/C=O [E,E-2,4-nonadienal] | Non-agonist
61 | CC/C=C\CC/C=C/C=O [E,Z-2,6-nonadienal] | Non-agonist
62 | CCO [Ethanol] | Non-agonist
63 | CCOC(=O)C(C)CC (stereo not drawn) [Ethyl 2-methylbutyrate] | Non-agonist
64 | CCCC(O)CC(=O)OCC (stereo not drawn) [Ethyl 3-hydroxyhexanoate] | Non-agonist
65 | CCOC(=O)CCC(C)C [Ethyl 4-methylvalerate] | Non-agonist
66 | CCOC(C)=O [Ethyl acetate] | Non-agonist
67 | CCCC(=O)OCC [Ethyl butyrate] | Non-agonist
68 | CCOC(=O)/C=C/c1ccccc1 [Ethyl cinnamate] | Non-agonist
69 | CCOC(=O)C1CCCCC1 [Ethyl cyclohexanecarboxylate] | Agonist
70 | CCCCCC(=O)OCC [Ethyl hexanoate] | Non-agonist
71 | CCOC(=O)C(C)C [Ethyl isobutyrate] | Non-agonist
72 | CCOC(=O)CC(C)C [Ethyl isovalerate] | Non-agonist
73 | CCOC(=O)C(C)=O [Ethyl pyruvate] | Non-agonist
74 | CCOc1cc(C=O)ccc1O [Ethyl vanillin] | Conflicting info.
75 | C=CC(=O)CC [Ethyl vinyl ketone] | Non-agonist

Row | SMILES | Class (agonist / non-agonist / antagonist / conflicting info.) for OR2W1
76 | O=C1CCCCCCCCCCCC(=O)OCCO1 [Ethylene brassylate] | Antagonist
77 | C=CCc1ccc(OC)c(OC)c1 [Eugenol methyl ether] | Non-agonist
78 | C=CCc1ccc(OC(C)=O)c(OC)c1 [Eugenyl acetate] | Agonist
79 | C/C=C/C(=O)C(C)CC (stereo not drawn) [Filbertone] | Non-agonist
80 | CC1=C(O)C(=O)C(C)O1 (stereo not drawn) [Furaneol] | Non-agonist
81 | SCc1ccco1 [Furfurylthiol] | Non-agonist
82 | CC(C)=CCC/C(C)=C/CO [Geraniol] | Conflicting info.
83 | CC(=O)OC/C=C(\C)CCC=C(C)C [Geranyl acetate] | Conflicting info.
84 | COc1ccccc1O [Guaiacol] | Non-agonist
85 | CCCCCCC=O [Heptanal] | Agonist
86 | CCCCCCC(=O)O [Heptanoic acid] | Non-agonist
87 | CCCCCCCO [Heptanol] | Agonist
88 | CCCCCC=O [Hexanal] | Conflicting info.
89 | CCCCCCO [Hexanol] | Conflicting info.
90 | CCCCCCOC(C)=O [Hexyl acetate] | Agonist
91 | CCC1OC(C)=C(O)C1=O (stereo not drawn) [Homofuraneol] | Non-agonist
92 | CC(CC=O)CCCC(C)(C)O (stereo not drawn) [Hydroxy-citronellal] | Non-agonist
93 | CC(=O)OCCC(C)C [Isoamyl acetate] | Agonist
94 | CC(C)CO [Isobutyl alcohol] | Non-agonist
95 | CC(C)CN [Isobutyl amine] | Antagonist
96 | CC(C)C=O [Isobutylraldehyde] | Non-agonist

Same assay, conditions: cited from earlier work

Row | SMILES | Class (agonist / non-agonist / antagonist / conflicting info.) for OR2W1
97 | CSSC [Dimethyl disulfide] | Non-agonist
98 | C=CCc1ccc(OC)cc1 [Estragole] | Agonist
99 | CCOC(=O)c1ccccc1 [Ethyl benzoate] | Non-agonist
100 | CCCCCCCCCC(=O)OCC [Ethyl decanoate] | Non-agonist
101 | CCCCCCCC(=O)OCC [Ethyl octanoate] | Non-agonist
102 | CCCCC(=O)OCC [Ethyl pentanoate] | Non-agonist
103 | CCOC(=O)Cc1ccccc1 [Ethylphenyl acetate] | Non-agonist
104 | C=CCc1ccc(O)c(OC)c1 [Eugenol] | Conflicting info.
105 | CCCCCCCC1CCC(=O)O1 (stereo not drawn) [Gamma-undecalactone] | Non-agonist
106 | CC(C=O)Cc1ccc2c(c1)OCO2 (stereo not drawn) [Helional] | Agonist
107 | CCCCCCCOC(=O)C(C)C [Heptyl isobutyrate] | Non-agonist
108 | CCCCCC(=O)O [Hexanoic acid] | Non-agonist
